The values that follow come from patent US20170209579A1, “NON-INVASIVE RADIOFREQUENCY FIELD TREATMENT FOR CANCER THERAPY” (Baylor College of Medicine, priority 2014, published 2017).

The test system of test [1] is Hep3B cells. The test is described as follows: Cell cycle analysis (BrdU flow cytometry) in Hep3B cells. Type of test: cell-based, human. As for the experimental part: For cell cycle analysis a BrdU-labeling protocol from BrdU Flow Kit (BD Pharmingen, San Diego, Calif.) was used according to the supplied instructions. Data was analyzed using FlowJo 7.63 (Tree Star, Inc., Ashland, Oreg.). For cell cycle analysis, a BrdU-labeling protocol was used to identify cells in S-phase of the cell cycle accurately. Cells were harvested from an exponentially growing culture as described for other experiments and seeded in 6-well plates, approximately 150,000 cells per well. After 24-hours adherent sub-confluent monolayers were noted and cells were exposed to various experimental conditions. At the end of the treatments, cells were washed and sampled at various time points to study the progression of the cell cycle in time. One hour before each time point, cells were pulsed with BrdU (10 μM) for 1 hour. BrdU gets incorporated in the DNA of cells in S-phase along with other nucleotides and can be detected using a mouse FITC conjugated anti-BrdU antibody. A BrdU Flow Kit (BD Pharmingen, San Diego, Calif.) was used according to the supplied instructions without modifications. For counterstaining of DNA content, cells were incubated with 7-amino-actinomycin D (7-AAD) supplied with the kit, on ice for 20 minutes before analysis on a BD LSR II flowcytometer (BD biosciences San Jose, Calif.). Single cell populations were identified using forward and side-scatter profiles. A total of 10,000 events were recorded from a gated single cell population. For 7-AAD fluorescence measurements, a SORP YG laser (561 nm) was used to excite the cells and emission was recorded through a 630LP filter followed by a 660/20 filter. For FITC fluorescence measurements, a SORP blue laser (488 nm) was used to excite the cells and emission was recorded through 505LP filter followed by a 525/50 filter. There was no spectral over-lap between the two emission spectra and compensation was not required. Data was analyzed using FlowJo 7.63 (Tree Star, Inc., Ashland, Oreg.). […] Cell cycle progression was analyzed over time (FIGS. 16 and 17). […]

For test [2], the system named is γ-H2AX in Hep3B xenografts. The test is described as follows: γ-H2AX fluorescence immunohistochemistry in Hep3B xenografts. Type of test: in vivo, mouse. As for the experimental part: (30A) Sites of DNA damage were evaluated using fluorescence immunohistochemistry for γ-H2AX. Also note the increased nuclear fragmentation in the DAPI channel for combination therapy groups.
Tumor tissues harvested at the end of the experiment were fixed in 10% buffered formalin (pH 7.0) for 24 hours and subsequently stored in 70% ethanol (v/v) before embedding them in paraffin. For immunohistochemistry, 5-micron sections were placed on a glass slide and tissue sections were de-paraffinized and rehydrated. Antigen retrieval was performed in citrate buffer at pH 6.0. The slides were placed in Tris-buffer (pH 8.0) before further processing.
For fluorescence immunohistochemistry, a protocol similar to that used for immunocytochemistry (described above) was used with some modifications described here. Tris-buffer was removed and tumor section was encircled using a pap pen (Electron microscopy sciences, Hatfield, Pa.). For blocking, 5% (w/v) BSA and 3% (v/v) NGS was used instead of 3% BSA and 1% NGS, respectively. Imaging was performed as for immunocytochemistry.
Development of mouse models and details of RF exposure and thermography are discussed in FIGS. 25 and 26. Mice bearing Hep3B orthotopic tumors were randomized to one of five groups: untreated, RF exposure alone, gemcitabine alone, gemcitabine followed 24 hours later by RF exposure, or RF exposure immediately followed by gemcitabine. The treatments were administered twice a week for three weeks for a total of six treatments. The gemcitabine dose administered was […] or 150 mg/kg/week. This is approximately half the dose used in humans (1000 mg/m2/week dose in a 1.7 m human=˜300 mg/kg/week dose in a mouse). Twenty-four hours after the last treatment, mice were killed and tumors were harvested, weighed, and fixed in formalin for later analysis (FIG. 19A). […]

As for `Nc1ccn([C@@H]2O[C@H](CO)[C@@H](O)C2(F)F)c(=O)n1` [gemcitabine, 2′,2′-difluoro 2′-deoxycytidine], the “cell cycle progression, gemcitabine followed by hyperthermia compared with gemcitabine alone” value in test [1] (1 μM 24 hours, last two hours at 42.5° C.) was “much slower progression through late-S and G2/M phases”. The cell cycle progression entry in test [1] (1 μM gemcitabine, 24-hour incubation) is given as “completely halts cell cycle progression”. In addition, in test [1] (after 24 hours 1 μM gemcitabine), the “cell cycle recovery once gemcitabine is removed” value is reported as “cells resume synchronized DNA synthesis in 24 hours”. Further, the entries for the “Mean γ-H2AX positive pixels/HPF [±SD]” value in test [2] (RF then gemcitabine), in test [2] (gemcitabine alone) and in test [2] (gemcitabine then RF) were 45430±18980 pixels/HPF, 27258±8022 pixels/HPF and 46968±10284 pixels/HPF, respectively.
